Source: patent publication US9371331B2, “Modulators of methyl modifying enzymes, compositions and uses thereof” (Constellation Pharmaceuticals, Inc., priority 2012, dated 2016)
Read-outs that look alike come from different tables or passages of the source.

Tests used:
EZH2 (rPRC2) = EZH2 (rPRC2) (Homo sapiens, UniProt Q15910); assay: EZH2 assay: rPRC2, biotinylated oligonucleosomes, 3H SAM methyl transfer (FlashPlate scintillation); type: biochemical; conditions: biotinylated oligonucleosome substrate
Method: Assays were carried out by mixing rPRC2 together with biotinylated oligonucleosome substrates in the presence of the radio-labeled enzyme co-factor, S-adenosyl-1-methionine (^3H SAM) (Perkin Elmer) and monitoring the enzymatically mediated transfer of tritiated methyl groups from ^3H SAM to histone lysine residues. The amount of resulting tritiated methyl histone product was measured by first capturing the biotinylated oligonucleosomes in streptavidin (SAV) coated FlashPlates (Perkin Elmer), followed by a wash step to remove un-reacted ^3H SAM, and then counting on a TopCount NXT 384 well plate scintillation counter (Perkin Elmer). The final assay conditions for EZH2 were as follows: 50 mM Tris Buffer pH 8.5, 1 mM DTT, 69 μM Brij-35 detergent, 5.0 mM MgCl2, 0.1 mg/mL BSA, 0.2 μM ^3H SAM, 0.2 μM biotinylated oligonucleosomes, 3.6 μM H3K27 mc3 peptide and 2 nM EZH2.
A 12.5 μL volume of the HMT enzyme, H3K27me3 peptide and oligonucleosome substrate in assay buffer was added to each well of the assay plate using a Multidrop Combi (ThermoFisher). Compounds were pre-incubated with the enzyme for 20 min, followed by initiation of the methyltransferase reaction by addition of 12.5 μL of ^3H SAM in assay buffer (final volume=25 μL). The final concentrations of compounds ranged from a top default concentration of 80 μM down to 0.16 μM in ten 2-fold dilution steps. Reactions were carried out for 60 minutes and quenched with 20 μL per well of 1.96 mM SAH, 50 mM Tris pH 8.5, 200 mM EDTA. Stopped reactions were transferred to SAV coated Flashplates (Perkin Elmer), incubated for 120 min, washed with a plate washer, and then read on the TopCount NXT (1.0 min/well) to measure the amount of methyl histone product formed during the reaction.

Y641N EZH2 = Y641N EZH2 (Homo sapiens, UniProt Q15910, Y641N); assay: Y641N EZH2 assay: as EZH2 assay, with reconstituted H3K27Me2 oligonucleosomes as substrate; type: biochemical
[1] = wild-type EZH2 (rPRC2), read-out: EZH2 IC50
[2] = Y641N mutant EZH2, H3K27Me2 oligonucleosome substrate, read-out: Y641N EZH2 IC50
[3] = EZH2 IC50, wild-type EZH2 (rPRC2)
[4] = Y641N EZH2 IC50, Y641N mutant EZH2, H3K27Me2 oligonucleosome substrate
[5] = Y641N mutant EZH2, H3K27Me2 oligonucleosome substrate

Chain of Y641N EZH2 (Q15910 whole entry Y641N): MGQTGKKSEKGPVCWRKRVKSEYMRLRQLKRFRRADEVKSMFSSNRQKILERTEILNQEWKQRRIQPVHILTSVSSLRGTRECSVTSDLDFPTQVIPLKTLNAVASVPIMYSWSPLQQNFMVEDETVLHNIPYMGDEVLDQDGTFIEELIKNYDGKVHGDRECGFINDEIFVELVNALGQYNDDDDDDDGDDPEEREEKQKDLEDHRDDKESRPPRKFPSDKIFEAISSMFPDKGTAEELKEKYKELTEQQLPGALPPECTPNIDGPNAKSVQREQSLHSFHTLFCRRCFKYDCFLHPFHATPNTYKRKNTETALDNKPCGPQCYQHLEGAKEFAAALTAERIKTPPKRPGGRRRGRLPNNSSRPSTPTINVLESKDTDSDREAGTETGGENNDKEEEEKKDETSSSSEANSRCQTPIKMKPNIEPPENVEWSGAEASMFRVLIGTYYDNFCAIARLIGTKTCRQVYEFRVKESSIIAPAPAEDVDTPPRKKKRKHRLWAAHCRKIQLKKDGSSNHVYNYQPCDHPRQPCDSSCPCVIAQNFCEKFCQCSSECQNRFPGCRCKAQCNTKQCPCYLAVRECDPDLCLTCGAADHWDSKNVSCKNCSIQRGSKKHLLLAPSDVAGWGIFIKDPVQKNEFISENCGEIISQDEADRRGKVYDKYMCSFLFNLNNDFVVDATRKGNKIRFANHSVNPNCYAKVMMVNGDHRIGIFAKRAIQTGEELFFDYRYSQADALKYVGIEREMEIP
Chain of Y641N EZH2 (O75530 whole entry partner): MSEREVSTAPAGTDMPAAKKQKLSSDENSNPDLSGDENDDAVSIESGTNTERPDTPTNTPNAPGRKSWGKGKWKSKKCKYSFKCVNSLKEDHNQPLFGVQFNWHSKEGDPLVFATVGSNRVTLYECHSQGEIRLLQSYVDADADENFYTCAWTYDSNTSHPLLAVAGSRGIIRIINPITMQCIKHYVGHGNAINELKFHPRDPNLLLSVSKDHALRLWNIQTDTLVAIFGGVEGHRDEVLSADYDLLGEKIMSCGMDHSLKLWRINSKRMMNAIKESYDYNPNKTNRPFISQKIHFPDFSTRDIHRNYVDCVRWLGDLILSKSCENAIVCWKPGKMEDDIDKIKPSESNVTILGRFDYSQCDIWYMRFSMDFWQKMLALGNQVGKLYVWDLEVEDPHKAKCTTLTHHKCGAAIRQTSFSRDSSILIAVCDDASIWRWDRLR
Chain of Y641N EZH2 (Q15022 whole entry partner): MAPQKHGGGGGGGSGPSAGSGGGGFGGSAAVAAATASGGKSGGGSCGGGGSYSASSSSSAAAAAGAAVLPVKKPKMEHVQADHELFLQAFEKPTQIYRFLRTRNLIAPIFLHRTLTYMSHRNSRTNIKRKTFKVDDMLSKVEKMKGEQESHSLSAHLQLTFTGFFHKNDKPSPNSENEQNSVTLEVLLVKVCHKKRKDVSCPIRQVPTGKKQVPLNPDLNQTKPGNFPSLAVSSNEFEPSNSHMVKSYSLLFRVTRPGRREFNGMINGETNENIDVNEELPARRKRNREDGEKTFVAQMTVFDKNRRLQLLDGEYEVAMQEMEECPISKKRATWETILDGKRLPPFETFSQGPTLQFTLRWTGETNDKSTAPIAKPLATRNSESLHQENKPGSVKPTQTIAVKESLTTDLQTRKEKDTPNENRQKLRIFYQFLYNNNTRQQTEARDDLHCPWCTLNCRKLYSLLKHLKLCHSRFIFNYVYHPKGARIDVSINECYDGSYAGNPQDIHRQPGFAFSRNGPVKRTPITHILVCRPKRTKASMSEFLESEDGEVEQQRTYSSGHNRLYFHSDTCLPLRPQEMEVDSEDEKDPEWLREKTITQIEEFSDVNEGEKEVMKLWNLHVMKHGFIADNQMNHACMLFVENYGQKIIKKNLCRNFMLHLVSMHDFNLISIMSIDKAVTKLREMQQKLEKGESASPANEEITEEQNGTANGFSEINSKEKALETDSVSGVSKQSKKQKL
Chain of EZH2 (rPRC2) (Q15910 whole entry): as the sequence (Q15910 whole entry Y641N) above, with N641Y counted along it
Chain of EZH2 (rPRC2) (O75530 whole entry partner): as the sequence (O75530 whole entry partner) above
Chain of EZH2 (rPRC2) (Q15022 whole entry partner): as the sequence (Q15022 whole entry partner) above

For `Cc1cc(C)c(CNC(=O)c2c(C)n(C(C)Cn3cccn3)c3ncccc23)c(=O)[nH]1` (racemic) [Compound 221, (±)-1-(1-(1H-pyrazol-1-yl)propan-2-yl)-N-((4,6-dimethyl-2-oxo-1,2-dihydropyridin-3-yl)methyl)-2-methyl-1H-pyrrolo[2,3-b]pyridine-3-carboxamide], the IC50 (EZH2 (rPRC2); [1]) was 100 to 1000 nM and the IC50 (Y641N EZH2; [2]) was 1000 to 10000 nM.
With `COc1nccc(C(C)n2c(C)c(C(=O)NCc3c(OC)cc(C)[nH]c3=O)c3cccnc32)n1` (racemic) [Compound 232, (±)-N-((4-methoxy-6-methyl-2-oxo-1,2-dihydropyridin-3-yl)methyl)-1-(1-(2-methoxypyrimidin-4-yl)ethyl)-2-methyl-1H-pyrrolo[2,3-b]pyridine-3-carboxamide] the IC50 (EZH2 (rPRC2); [3]) was 100 to 1000 nM and the IC50 (Y641N EZH2; [4]) was 1000 to 10000 nM.
`COc1nccc(C(C)n2c(C)c(C(=O)NCc3c(C)cc(C)[nH]c3=O)c3cccnc32)n1` (racemic) [Compound 233, (±)-N-((4,6-dimethyl-2-oxo-1,2-dihydropyridin-3-yl)methyl)-1-(1-(2-methoxypyrimidin-4-yl)ethyl)-2-methyl-1H-pyrrolo[2,3-b]pyridine-3-carboxamide] was tested, and the IC50 (EZH2 (rPRC2); [3]) was 100 to 1000 nM and the IC50 (Y641N EZH2; [4]) was 1000 to 10000 nM.
Molecule `CCOc1cc(C)[nH]c(=O)c1CNC(=O)c1c(C)n(C(C)COC)c2ncccc12` (racemic) [Compound 235, (±)-N-((4-ethoxy-6-methyl-2-oxo-1,2-dihydropyridin-3-yl)methyl)-1-(1-methoxypropan-2-yl)-2-methyl-1H-pyrrolo[2,3-b]pyridine-3-carboxamide] has an IC50 (EZH2 (rPRC2); [3]) of 100 to 1000 nM and an IC50 (Y641N EZH2; [4]) of 1000 to 10000 nM.
In the case of `Cc1cc(C)c(CNC(=O)c2c(C)n(C(C)CN3CCOCC3)c3ncccc23)c(=O)[nH]1` (racemic) [Compound 237, (±)-N-((4,6-dimethyl-2-oxo-1,2-dihydropyridin-3-yl)methyl)-2-methyl-1-(1-morpholinopropan-2-yl)-1H-pyrrolo[2,3-b]pyridine-3-carboxamide], the IC50 (EZH2 (rPRC2); [3]) is reported as 100 to 1000 nM and the IC50 (Y641N EZH2; [4]) is reported as 1000 to 10000 nM.
For `Cc1cc(C)c(CNC(=O)c2c(C)n(C(C)Cn3ccccc3=O)c3ncccc23)c(=O)[nH]1` (racemic) [Compound 249, (±)-N-((4,6-dimethyl-2-oxo-1,2-dihydropyridin-3-yl)methyl)-2-methyl-1-(1-(2-oxopyridin-1(2H)-yl)propan-2-yl)-1H-pyrrolo[2,3-b]pyridine-3-carboxamide], the IC50 (EZH2 (rPRC2); [1]) was 100 to 1000 nM and the IC50 (Y641N EZH2; [2]) was 1000 to 10000 nM.
For `COc1cc(C)[nH]c(=O)c1CNC(=O)c1c(C)n(C(C)COc2ccccn2)c2ncccc12` (racemic) [Compound 251, (±)-N-((4-methoxy-6-methyl-2-oxo-1,2-dihydropyridin-3-yl)methyl)-2-methyl-1-(1-(pyridine-2-yloxy)propan-2-yl)-1H-pyrrolo[2,3-b]pyridine-3-carboxamide], the IC50 (EZH2 (rPRC2); [1]) was 100 to 1000 nM and the IC50 (Y641N EZH2; [2]) was 100 to 1000 nM.
In the case of `CCOc1cc(C)[nH]c(=O)c1CNC(=O)c1c(C)n(C(C)c2ccccc2)c2cnccc12` (racemic) [Compound 255, (±)-N-((4-ethoxy-6-methyl-2-oxo-1,2-dihydropyridin-3-yl)methyl)-2-methyl-1-(1-phenylethyl)-1H-pyrrolo[2,3-c]pyridine-3-carboxamide], the IC50 (EZH2 (rPRC2); [3]) is reported as less than 100 nM and the IC50 (Y641N EZH2; [4]) is reported as 1000 to 10000 nM.
With `COCC(C)n1c(C)c(C(=O)NCc2c(OC)cc(C3CC3)[nH]c2=O)c2cccnc21` (racemic) [Compound 260, (±)-N-((6-cyclopropyl-4-methoxy-2-oxo-1,2-dihydropyridin-3-yl)methyl)-1-(1-methoxypropan-2-yl)-2-methyl-1H-pyrrolo[2,3-b]pyridine-3-carboxamide] the IC50 (EZH2 (rPRC2); [3]) was 100 to 1000 nM and the IC50 (Y641N EZH2; [4]) was 1000 to 10000 nM.
With `Cc1cc(C)c(CNC(=O)c2c(C)n(C(C)CN3CCCCC3)c3ncccc23)c(=O)[nH]1` (racemic) [Compound 272, (±)-N-((4,6-dimethyl-2-oxo-1,2-dihydropyridin-3-yl)methyl)-2-methyl-1-(1-(piperidin-1-yl)propan-2-yl)-1H-pyrrolo[2,3-b]pyridine-3-carboxamide] the IC50 (EZH2 (rPRC2); [3]) was 1000 to 10000 nM and the “Y641N EZH2 IC50” value (Y641N EZH2; [5]) was “*(10 μM)”.
Molecule `CCC(OC)C(C)n1c(C)c(C(=O)NCc2c(C)cc(C)[nH]c2=O)c2ccccc21` (racemic) [Compound 275, (±)-N-((4,6-dimethyl-2-oxo-1,2-dihydropyridin-3-yl)methyl)-1-(3-methoxypentan-2-yl)-2-methyl-1H-indole-3-carboxamide] has an IC50 (EZH2 (rPRC2); [3]) of less than 100 nM and an IC50 (Y641N EZH2; [4]) of less than 100 nM.
With `COc1cc(C)[nH]c(=O)c1CNC(=O)c1c(C)n(C(C)C(C)(C)OC)c2ccccc12` (racemic) [Compound 277, (±)-1-(3-methoxy-3-methylbutan-2-yl)-N-((4-methoxy-6-methyl-2-oxo-1,2-dihydropyridin-3-yl)methyl)-2-methyl-1H-indole-3-carboxamide] the IC50 (EZH2 (rPRC2); [3]) was less than 100 nM and the IC50 (Y641N EZH2; [4]) was less than 100 nM.
With `CCc1cc(OC)c(CNC(=O)c2c(C)n(C(C)COC)c3ncccc23)c(=O)[nH]1` (racemic) [Compound 280, (±)-N-((6-ethyl-4-methoxy-2-oxo-1,2-dihydropyridin-3-yl)methyl)-1-(1-methoxypropan-2-yl)-2-methyl-1H-pyrrolo[2,3-b]pyridine-3-carboxamide] the IC50 (EZH2 (rPRC2); [3]) was 100 to 1000 nM and the IC50 (Y641N EZH2; [4]) was 1000 to 10000 nM.
With `CCOC(C)C(C)n1c(C)c(C(=O)NCc2c(OC)cc(C)[nH]c2=O)c2ccccc21` (racemic) [Compound 290, (±)-1-(3-ethoxybutan-2-yl)-N-((4-methoxy-6-methyl-2-oxo-1,2-dihydropyridin-3-yl)methyl)-2-methyl-1H-indole-3-carboxamide] the IC50 (EZH2 (rPRC2); [3]) was less than 100 nM and the IC50 (Y641N EZH2; [4]) was 100 to 1000 nM.
`COCC(C)n1c(C)c(C(=O)NCc2c(OC)cc(C)[nH]c2=O)c2ccc(N3CCNCC3)nc21` (racemic) [Compound 295, (±)-N-((4-methoxy-6-methyl-2-oxo-1,2-dihydropyridin-3-yl)methyl)-1-(1-methoxypropan-2-yl)-2-methyl-6-(piperazin-1-yl)-1H-pyrrolo[2,3-b]pyridine-3-carboxamide] gave an IC50 (EZH2 (rPRC2); [1]) of 100 to 1000 nM and an IC50 (Y641N EZH2; [2]) of 1000 to 10000 nM.
With `COCCOC(C)C(C)n1c(C)c(C(=O)NCc2c(OC)cc(C)[nH]c2=O)c2cccnc21` (racemic) [Compound 297, (±)-N-((4-methoxy-6-methyl-2-oxo-1,2-dihydropyridin-3-yl)methyl)-1-(3-(2-methoxyethoxy)butan-2-yl)-2-methyl-1H-pyrrolo[2,3-b]pyridine-3-carboxamide 2,2,2-trifluoroacetate] the IC50 (EZH2 (rPRC2); [3]) was less than 100 nM and the IC50 (Y641N EZH2; [4]) was 100 to 1000 nM.
Work on `COc1cc(C)[nH]c(=O)c1CNC(=O)c1c(C)n(C(C)CC#N)c2ncccc12` (racemic) [Compound 301, (±)-1-(1-cyanopropan-2-yl)-N-((4-methoxy-6-methyl-2-oxo-1,2-dihydropyridin-3-yl)methyl)-2-methyl-1H-pyrrolo[2,3-b]pyridine-3-carboxamide] yielded an IC50 (EZH2 (rPRC2); [3]) of less than 100 nM and an IC50 (Y641N EZH2; [4]) of 100 to 1000 nM.
`COCC(C)n1c(C)c(C(=O)NCc2c(OC)cc(C)[nH]c2=O)c2ccc(C(F)(F)F)nc21` (racemic) [Compound 309, (±)-N-((4-methoxy-6-methyl-2-oxo-1,2-dihydropyridin-3-yl)methyl)-1-(1-methoxypropan-2-yl)-2-methyl-6-(trifluoromethyl)-1H-pyrrolo[2,3-b]pyridine-3-carboxamide] showed an IC50 (EZH2 (rPRC2); [3]) of 100 to 1000 nM and an IC50 (Y641N EZH2; [4]) of 1000 to 10000 nM.
In the case of `COc1cc(C)[nH]c(=O)c1CNC(=O)c1c(C)n(C(C)C2CCC(F)(F)CC2)c2ncncc12` (racemic) [Compound 334, (±)-7-(1-(4,4-difluorocyclohexyl)ethyl)-N-((4-methoxy-6-methyl-2-oxo-1,2-dihydropyridin-3-yl)methyl)-6-methyl-7H-pyrrolo[2,3-d]pyrimidine-5-carboxamide], the IC50 (EZH2 (rPRC2); [3]) is reported as less than 100 nM and the IC50 (Y641N EZH2; [4]) is reported as 100 to 1000 nM.
With `Cc1cc(C)c(CNC(=O)c2cnn(C(C)c3ccccc3)c2C)c(O)n1` (single isomer, unassigned) [Compound 107, (R or S)—N-((2-hydroxy-4,6-dimethylpyridin-3-yl)methyl)-5-methyl-1-(1-phenylethyl)-1H-pyrazole-4-carboxamide] the IC50 (EZH2 (rPRC2); [1]) was greater than 10000 nM and the IC50 (Y641N EZH2; [2]) was greater than 10000 nM.
In the case of `CCC(C)n1c(C)c(C(=O)NCc2c(C)cc(C)[nH]c2=O)c2cccnc21` (single isomer, unassigned) [Compound 195, (R or S)-1-(sec-butyl)-N-((4,6-dimethyl-2-oxo-1,2-dihydropyridin-3-yl)methyl)-2-methyl-1H-pyrrolo[2,3-b]pyridine-3-carboxamide], the IC50 (EZH2 (rPRC2); [3]) is reported as 100 to 1000 nM and the “Y641N EZH2 IC50” value (Y641N EZH2; [5]) is reported as “*(0.5 μM)”.
`Cc1cc(C)c(COC(=O)c2c(C)n(C3CCc4ccccc43)c3ccccc23)c(=O)[nH]1` (single isomer, unassigned) [Compound 213, (R or S)-(4,6-dimethyl-2-oxo-1,2-dihydropyridin-3-yl)methyl 1-(2,3-dihydro-1H-inden-1-yl)-2-methyl-1H-indole-3-carboxylate] was tested, and the IC50 (EZH2 (rPRC2); [3]) was less than 100 nM and the IC50 (Y641N EZH2; [4]) was 100 to 1000 nM.
